Data taken from ChEMBL document CHEMBL5608201, “Discovery and optimization of thiazole-based quorum sensing inhibitors as potent blockers of Pseudomonas aeruginosa pathogenicity” (Eur J Med Chem, 2024).
In brackets after ≈: the same amount, converted by molar mass.

What was measured:
CYP1A = biological target: T1, CYP1A (Homo sapiens, UniProt P04798+P05177); test: Inhibition of CYP1A (unknown origin); type: ADME, protein assay
T1 sequence (P04798 whole entry): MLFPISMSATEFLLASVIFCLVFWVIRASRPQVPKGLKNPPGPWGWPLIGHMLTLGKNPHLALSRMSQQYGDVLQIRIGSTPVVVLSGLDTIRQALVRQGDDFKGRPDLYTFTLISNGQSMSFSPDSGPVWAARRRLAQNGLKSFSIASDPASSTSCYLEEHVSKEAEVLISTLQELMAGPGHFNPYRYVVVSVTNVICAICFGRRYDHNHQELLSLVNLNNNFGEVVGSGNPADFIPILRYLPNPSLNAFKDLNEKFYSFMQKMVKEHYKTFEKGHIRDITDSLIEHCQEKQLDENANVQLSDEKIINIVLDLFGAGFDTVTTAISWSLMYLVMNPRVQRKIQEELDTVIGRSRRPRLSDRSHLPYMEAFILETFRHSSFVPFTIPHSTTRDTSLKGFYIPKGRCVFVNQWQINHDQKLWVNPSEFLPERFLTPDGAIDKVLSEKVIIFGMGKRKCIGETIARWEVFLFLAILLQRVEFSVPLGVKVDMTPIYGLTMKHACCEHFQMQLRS
T1 sequence (P05177 whole entry): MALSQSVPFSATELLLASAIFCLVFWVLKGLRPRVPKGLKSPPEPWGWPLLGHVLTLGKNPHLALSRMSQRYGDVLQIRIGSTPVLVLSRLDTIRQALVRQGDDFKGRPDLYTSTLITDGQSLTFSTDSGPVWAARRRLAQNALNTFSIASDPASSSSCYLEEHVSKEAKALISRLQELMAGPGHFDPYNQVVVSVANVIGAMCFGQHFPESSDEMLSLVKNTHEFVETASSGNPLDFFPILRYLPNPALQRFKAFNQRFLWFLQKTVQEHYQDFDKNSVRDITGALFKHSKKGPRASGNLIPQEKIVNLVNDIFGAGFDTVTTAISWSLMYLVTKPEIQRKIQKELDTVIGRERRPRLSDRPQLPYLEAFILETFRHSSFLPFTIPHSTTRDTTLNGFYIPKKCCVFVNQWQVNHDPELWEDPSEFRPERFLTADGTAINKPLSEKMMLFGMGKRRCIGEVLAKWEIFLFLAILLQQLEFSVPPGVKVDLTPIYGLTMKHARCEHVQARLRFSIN

[1] = Plasma protein binding in human; type: ADME, cell-free; settings: read-out: PPB
[2] = Cytotoxicity against human HepG2 cells assessed as viable cells; type: toxicity, cell-based; settings: read-out: LD50 (the source's name)
[3] = Lipophilicity, log D of the compound; type: physicochemical; settings: octanol/water
[4] = Metabolic stability in mouse liver microsomes assessed as half life at 1 uM measured after 30 mins by HPLC-MS/MS analysis; type: ADME, Microsome
[5] = Metabolic stability in human liver S9 fraction assessed as half life; type: ADME, subcellular
[6] = Cytotoxicity against human HEK293 cells assessed as viable cells at 25 uM relative to control; type: toxicity, cell-based; settings: read-out: Activity
[7] = Kinetic aqueous solubility of the compound in PBS buffer incubated for 5 mins by turbidimetric aqueous solubility assay; type: physicochemical; settings: read-out: Kinetic_solubility
[8] = Plasma protein binding in mouse; type: ADME, cell-free; settings: read-out: PPB
[9] = Cytotoxicity against human HEK293 cells assessed as viable cells; type: toxicity, cell-based; settings: read-out: LD50 (the source's name)
Pseudomonas aeruginosa = test: Antivirulence activity against Pseudomonas aeruginosa PA14 assessed as inhibition of pyocyanin biosynthesis incubated for 16 hrs under agitation by photometric analysis; type: functional, organism-based; settings: PA14, 16 h
Cytochrome P450 2C9 = Cytochrome P450 2C9 (Homo sapiens, UniProt P11712); test: Inhibition of CYP2C9 (unknown origin); type: ADME
[10] = Cytotoxicity against human HepG2 cells assessed as viable cells at 25 uM relative to control; type: toxicity, cell-based; settings: read-out: Activity
Cytochrome P450 2D6 = Cytochrome P450 2D6 (Homo sapiens, UniProt P10635); test: Inhibition of CYP2D6 (unknown origin); type: ADME
[11] = biological target: Voltage-gated inwardly rectifying potassium channel KCNH2 (Homo sapiens, UniProt Q12809); test: Inhibition of hERG; type: toxicity
Cytochrome P450 3A4 = Cytochrome P450 3A4 (Homo sapiens, UniProt P08684); test: Inhibition of CYP3A4 (unknown origin); type: ADME
Cytochrome P450 2C19 = Cytochrome P450 2C19 (Homo sapiens, UniProt P33261); test: Inhibition of CYP2C19 (unknown origin); type: ADME
[12] = biological target: T2, Transcriptional regulator MvfR (Pseudomonas aeruginosa PA14, UniProt A0A072ZLE6); test: Inverse agonist activity at Pseudomonas aeruginosa PqsR extracted from Escherichia coli Dh5alpha co-expressing lacZ incubated with test compound in presence of pseudomonas quinolone signal (PQS) by ONPG/heterologous reporter gene assay
T2 sequence (A0A072ZLE6 whole entry): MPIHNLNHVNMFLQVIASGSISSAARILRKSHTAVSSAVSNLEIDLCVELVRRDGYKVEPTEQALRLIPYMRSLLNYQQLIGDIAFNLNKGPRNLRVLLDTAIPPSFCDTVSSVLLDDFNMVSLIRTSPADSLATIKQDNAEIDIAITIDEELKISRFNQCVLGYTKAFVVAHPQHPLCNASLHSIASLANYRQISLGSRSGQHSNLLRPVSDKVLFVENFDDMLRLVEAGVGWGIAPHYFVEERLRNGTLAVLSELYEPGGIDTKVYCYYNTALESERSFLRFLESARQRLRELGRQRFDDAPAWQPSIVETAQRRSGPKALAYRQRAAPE

[13] = Selectivity ratio of LD50 for Cytotoxicity against human HEK293 cells to IC50 for Inverse agonist activity at Pseudomonas aeruginosa PqsR; type: toxicity, cell-based
[14] = Cytotoxicity against human HEK293 cells assessed as viable cells at 50 uM relative to control; type: toxicity, cell-based; settings: read-out: Activity

Sequence of Voltage-gated inwardly rectifying potassium channel KCNH2 (Q12809 whole entry): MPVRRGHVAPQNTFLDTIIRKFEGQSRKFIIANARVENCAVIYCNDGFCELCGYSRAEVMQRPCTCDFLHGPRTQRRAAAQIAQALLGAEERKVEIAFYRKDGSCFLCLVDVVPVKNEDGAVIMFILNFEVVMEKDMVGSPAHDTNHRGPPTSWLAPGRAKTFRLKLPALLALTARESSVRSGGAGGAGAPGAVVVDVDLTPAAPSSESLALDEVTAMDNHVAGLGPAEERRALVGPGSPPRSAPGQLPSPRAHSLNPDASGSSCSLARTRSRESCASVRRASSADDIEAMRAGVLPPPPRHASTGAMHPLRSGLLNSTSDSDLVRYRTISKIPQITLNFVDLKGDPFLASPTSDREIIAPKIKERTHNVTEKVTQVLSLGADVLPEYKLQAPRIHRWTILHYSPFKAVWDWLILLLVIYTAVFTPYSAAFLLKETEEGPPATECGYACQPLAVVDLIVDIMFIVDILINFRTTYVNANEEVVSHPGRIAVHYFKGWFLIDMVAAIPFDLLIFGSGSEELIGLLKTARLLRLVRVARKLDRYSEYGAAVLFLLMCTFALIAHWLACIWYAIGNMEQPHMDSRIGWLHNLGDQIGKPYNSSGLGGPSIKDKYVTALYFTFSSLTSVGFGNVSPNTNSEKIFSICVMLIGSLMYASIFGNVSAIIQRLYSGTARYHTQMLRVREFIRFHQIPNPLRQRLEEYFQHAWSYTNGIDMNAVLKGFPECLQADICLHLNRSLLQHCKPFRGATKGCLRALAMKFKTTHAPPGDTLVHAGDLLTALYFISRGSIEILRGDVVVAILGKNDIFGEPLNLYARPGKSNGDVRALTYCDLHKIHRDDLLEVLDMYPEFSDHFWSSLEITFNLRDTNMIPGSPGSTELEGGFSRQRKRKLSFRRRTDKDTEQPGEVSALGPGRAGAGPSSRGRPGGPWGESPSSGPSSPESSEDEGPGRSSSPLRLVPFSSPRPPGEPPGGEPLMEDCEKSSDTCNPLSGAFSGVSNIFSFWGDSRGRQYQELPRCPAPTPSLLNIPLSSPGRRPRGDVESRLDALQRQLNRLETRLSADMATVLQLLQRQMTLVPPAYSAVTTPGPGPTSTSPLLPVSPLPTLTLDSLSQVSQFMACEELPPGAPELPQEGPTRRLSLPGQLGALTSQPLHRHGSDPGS
Sequence of Cytochrome P450 2C9 (P11712 whole entry): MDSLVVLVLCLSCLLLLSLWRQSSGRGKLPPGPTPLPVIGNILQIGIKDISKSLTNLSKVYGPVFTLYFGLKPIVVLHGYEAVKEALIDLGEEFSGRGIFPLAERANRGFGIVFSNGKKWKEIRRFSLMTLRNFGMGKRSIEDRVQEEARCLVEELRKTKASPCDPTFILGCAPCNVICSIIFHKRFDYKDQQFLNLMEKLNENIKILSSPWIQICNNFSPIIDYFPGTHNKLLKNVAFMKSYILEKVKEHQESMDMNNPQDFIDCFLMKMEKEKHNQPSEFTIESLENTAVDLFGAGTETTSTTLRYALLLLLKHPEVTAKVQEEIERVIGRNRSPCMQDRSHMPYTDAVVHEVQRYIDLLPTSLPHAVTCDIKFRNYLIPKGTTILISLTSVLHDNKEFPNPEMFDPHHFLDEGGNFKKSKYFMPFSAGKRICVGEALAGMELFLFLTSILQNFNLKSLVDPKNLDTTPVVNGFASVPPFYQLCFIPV
Sequence of Cytochrome P450 2D6 (P10635 whole entry): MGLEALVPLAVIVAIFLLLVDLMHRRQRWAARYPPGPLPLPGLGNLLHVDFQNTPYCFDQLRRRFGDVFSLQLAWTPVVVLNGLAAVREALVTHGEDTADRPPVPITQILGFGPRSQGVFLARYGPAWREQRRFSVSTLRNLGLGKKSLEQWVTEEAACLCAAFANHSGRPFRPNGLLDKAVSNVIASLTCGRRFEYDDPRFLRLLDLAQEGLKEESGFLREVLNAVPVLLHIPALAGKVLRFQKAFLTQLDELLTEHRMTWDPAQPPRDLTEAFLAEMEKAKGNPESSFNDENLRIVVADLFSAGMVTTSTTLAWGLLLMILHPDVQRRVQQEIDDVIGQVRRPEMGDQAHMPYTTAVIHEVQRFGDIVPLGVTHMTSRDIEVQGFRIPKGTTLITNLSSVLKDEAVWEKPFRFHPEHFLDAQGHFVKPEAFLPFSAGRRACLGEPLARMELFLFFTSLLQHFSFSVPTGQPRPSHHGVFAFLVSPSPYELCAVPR
Sequence of Cytochrome P450 2C19 (P33261 whole entry): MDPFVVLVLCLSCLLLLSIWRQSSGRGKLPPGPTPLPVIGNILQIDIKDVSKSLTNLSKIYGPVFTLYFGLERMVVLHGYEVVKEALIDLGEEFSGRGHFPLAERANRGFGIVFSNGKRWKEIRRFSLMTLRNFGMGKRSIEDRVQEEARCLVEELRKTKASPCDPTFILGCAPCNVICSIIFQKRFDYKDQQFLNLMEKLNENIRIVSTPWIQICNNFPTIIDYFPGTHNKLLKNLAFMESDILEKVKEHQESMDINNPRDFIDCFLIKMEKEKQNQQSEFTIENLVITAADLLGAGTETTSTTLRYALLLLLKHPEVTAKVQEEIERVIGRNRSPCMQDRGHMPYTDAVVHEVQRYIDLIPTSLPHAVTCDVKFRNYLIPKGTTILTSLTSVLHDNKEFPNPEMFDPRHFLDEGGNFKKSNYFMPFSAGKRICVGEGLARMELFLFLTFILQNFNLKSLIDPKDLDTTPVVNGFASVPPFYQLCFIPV
Sequence of Cytochrome P450 3A4 (P08684 whole entry): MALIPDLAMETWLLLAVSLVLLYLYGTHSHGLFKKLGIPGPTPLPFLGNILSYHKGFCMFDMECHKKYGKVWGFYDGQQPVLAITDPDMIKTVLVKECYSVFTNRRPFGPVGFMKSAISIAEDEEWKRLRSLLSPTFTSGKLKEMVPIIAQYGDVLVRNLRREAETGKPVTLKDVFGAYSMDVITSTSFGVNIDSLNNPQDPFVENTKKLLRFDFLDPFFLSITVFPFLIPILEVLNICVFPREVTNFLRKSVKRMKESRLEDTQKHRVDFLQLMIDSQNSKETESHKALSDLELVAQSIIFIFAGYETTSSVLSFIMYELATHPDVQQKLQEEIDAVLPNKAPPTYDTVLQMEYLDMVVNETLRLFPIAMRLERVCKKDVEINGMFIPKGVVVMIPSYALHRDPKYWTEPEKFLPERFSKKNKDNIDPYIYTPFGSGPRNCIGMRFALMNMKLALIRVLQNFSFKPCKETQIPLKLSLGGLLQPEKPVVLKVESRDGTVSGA

Row | Compound | IC50 (CYP1A) | fraction unbound [1] | CC50 [2] | logD [3] | half-life at 1 µM [4] | half-life [5] | viability at 25 µM [6] | solubility kinetic at 5 min [7] | fraction unbound [8] | CC50 [9] | IC50 (Pseudomonas aeruginosa) | IC50 (Cytochrome P450 2C9) | viability at 25 µM [10] | IC50 (Cytochrome P450 2D6) | IC50 [11] | IC50 (Cytochrome P450 3A4) | IC50 (Cytochrome P450 2C19) | IC50 [12] | selectivity ratio [13] | viability at 50 µM [14]
1 | FC(F)(F)c1cc(NCc2cn(-c3ccc(Oc4ccccc4)cc3)nn2)ccn1 | > 25 µM | < 0.01 | ~25 µM | 4.22 | 10 min | > 60 min | 48% | 8 µM (≈ 3.29 µg/mL) | < 0.01 | ~25 µM | 0.2 µM | > 25 µM | 55% | > 25 µM | > 25 µM |  |  |  |  | 
2 | CC(C)Oc1ccc(-c2ncc(CNc3ccnc(C#N)c3)s2)cc1Cl | > 25 µM | < 0.01 | > 25 µM | 4.83 | 11 min | > 60 min |  | 7 µM (≈ 2.69 µg/mL) | < 0.01 | ~50 µM | 0.098 µM | > 25 µM | 59% | > 25 µM | 13.2 µM | > 25 µM | 21.4 µM | 0.005 µM | 10000 | 51%
3 | CC(C)Oc1ccc(-c2ncc(CNc3ccnc(C(F)(F)F)c3)s2)cc1Cl | > 25 µM | < 0.01 | ~25 µM | 4.51 | 20 min | > 60 min | 51% | 7 µM (≈ 3 µg/mL) | < 0.01 | ~25 µM | 0.106 µM | 16.4 µM | 49% | > 25 µM | > 25 µM | > 25 µM | 17.1 µM | 0.008 µM |  | 
